# Measurements as given in publication PMC5698418 (Nature Communications, 2017).
# How the values were obtained:
# GluA2 mRNA = GluA2 mRNA by RT-qPCR in cortical neurons; type: cell-based, mouse; settings: BDNF plus AK-7 16.7 µM vs BDNF plus vehicle, 6 h
# Protocol: (§1) After experimental treatment, total RNA was isolated from primary cortical neuron cultures using the TRIzol method (Invitrogen). The concentration of total RNA was measured using a NanoDrop 1000 spectrophotometer (Thermo Fisher Scientific, Rockford, IL) and first-strand complementary DNA (cDNA) was synthesized using the iScript cDNA Synthesis Kit (Bio-Rad, Hercules, CA). Real-time PCRs were performed using gene-specific primers and monitored by quantification of SYBR Green I fluorescence using a Bio-Rad CFX96 Real-Time Detection System. Expression was normalized against Gapdh expression. The relative quantification from at least three biological replicates was performed using the comparative cycle threshold (∆∆CT) method.
# (§2) Primers for real-time reverse transcription PCR experiments were: Arc, 5′-[…]-3′ (forward) and 5′-[…]-3′ (reverse); Map2, 5′-[…]-3′ (forward) and 5′-[…]-3′ (reverse); GluA1, 5′-[…]-3′ (forward) and 5′-[…]-3′ (reverse); GluA2, 5′-[…]-3′ (forward) and 5′-[…]-3′ (reverse); Gapdh, 5′-[…]-3′ (forward) and 5′-[…]-3′ (reverse).
# (§3) Supplementary Fig. 6. […] Bars represent mean fold-change and error bars indicate range from five biological replicates.
# acetyl-H3K9 = assay: Acetyl-H3K9 immunofluorescence in neuronal nuclei (multiplexed in screen); type: cell-based, mouse; settings: screen, 16.7 µM
# Outline: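 DIV13 mouse primary cortical neurons treated with library compounds and BDNF, then immunostained for Arc and acetyl-H3K9. Imaged at ×40 by automated microscopy; acetyl-H3K9 signal served as nuclear mask for quantifying nuclear Arc immunofluorescence.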
# surface GluA1 = assay: Surface AMPAR (GluA1) imaging along dendrites; type: cell-based, mouse; settings: 16.7 µM, 6 h with BDNF, vs untreated and BDNF alone; for BDNF: BDNF alone vs baseline
# Protocol: Our procedure to label surface AMPARs containing the GluA1 subunit was adapted from two reports[14],[61]. Precisely, DIV14 primary cortical neurons cultured on coverslips were rinsed once with room temperature PBS^MC (PBS containing 0.5 mM CaCl2, 1 mM MgCl2, and 4% sucrose). Live cells were then incubated for 30 min at room temperature with GluA1 primary antibody solution (PBS^MC with antibody against the extracellular N-terminus of GluA1 (EMD Millipore Corp, clone RH95, 5.0 µg ml^−1)). Next, cells were rinsed twice with ice-cold PBS^MC followed by fixation with 4% paraformaldehyde + 4% sucrose solution for 15 min at room temperature. After fixation, neurons were washed with regular PBS and then incubated overnight with Map2 primary antibody solution (PBS with 0.125% Triton X-100, 5% normal goat serum, and anti-Map2 antibody) to label dendrites. Next day, coverslips were washed with PBS, incubated with appropriate secondary antibodies for 1 h at room temperature, and finally mounted on glass slides with ProLong Antifade reagent (Invitrogen).
# (§4) Quantification of surface GluA1 puncta was performed according to the following strategy. First, overlapping digital images of GluA1 and Map2 immunostainings were collected using a Zeiss AxioObserver Z1 inverted microscope and ×63 oil immersion objective. Second, thresholding and segmentation based on the Map2 images was used to remove GluA1 signals outside of dendritic processes. Importantly, the same background/foreground cutoff threshold was used for images of all experimental conditions. Third, the length of dendrites for each image set was measured and recorded. Finally, distinct GluA1 foreground objects along dendrites >5 pixels were counted using the particle analysis tool in ImageJ and presented as the average number of GluA1 puncta per µm of dendrite length for each experimental condition.
# [1] = set-up: method as in PMID 21370928, PMID 23200855; settings: ref [34],[42]; cited from earlier work
# HDAC8 = target: T1, HDAC8 (Homo sapiens, UniProt Q9BY41); assay: Biochemical HDAC assay (BPS Bioscience), HDAC8; settings: 25 µM
# T1 construct: purchased BPS Bioscience (San Diego, CA), contract assay service
# HDAC6 = target: T2, HDAC6 (Homo sapiens, UniProt Q9UBN7); assay: Biochemical HDAC assay (BPS Bioscience), HDAC6; settings: 25 µM
# T2 construct: purchased BPS Bioscience (San Diego, CA), contract assay service
# GluA1 mRNA = GluA1 mRNA by RT-qPCR in cortical neurons; type: cell-based, mouse; settings: BDNF plus AK-7 16.7 µM vs BDNF plus vehicle, 6 h
# Protocol: as §1, §2, §3
# HDAC3 = target: T3, HDAC3 (Homo sapiens, UniProt O15379); assay: Biochemical HDAC assay (BPS Bioscience), HDAC3; settings: 25 µM
# T3 construct: purchased BPS Bioscience (San Diego, CA), contract assay service
# [2] = test system: Arc puncta in dendrites of primary cortical neurons; assay: Arc puncta along Map2-labeled dendrites (immunocytochemistry); type: cell-based, mouse; settings: 16.7 µM with BDNF, vs untreated and BDNF alone; for BDNF: BDNF alone vs untreated
# Source text: Chemical structure of each compound is presented on top. b Graphs show mean (n = 5) Arc/β-actin ratio (±SEM) for cells treated as in a. […] Tukey’s HSD post hoc test, *p < 0.05; **p < 0.01, ***p < 0.005; ****p < 0.0001. […] Representative captures of DIV14 mouse primary cortical neurons from each experimental condition co-immunostained for Arc (red fluorophore) and Map2 (green fluorophore). White arrowheads show examples of discrete Arc puncta. […] Tukey’s HSD post hoc test, *p < 0.05; ***p < 0.005; ****p < 0.0001
# Indirect immunofluorescence detection of antigens was carried out using cortical neurons cultured on poly-L-lysine/laminin-coated coverslips in 24-well plates at a density of 0.1 × 10^7 per well. After experimental treatment, cells were washed twice with PBS and fixed for 30 min at room temperature with 4% paraformaldehyde in PBS. After fixation, cells were washed twice with PBS, permeabilized with PBST (PBS + 0.25% Triton X-100) for 20 min, blocked in blocking solution (PBS + 5% normal goat serum) for another 30 min, and finally incubated overnight at 4 °C with the first primary antibody in blocking solution. The next day, coverslips were extensively washed with PBS and incubated for 2 h at room temperature in the appropriate fluorophore-conjugated secondary antibody solution (Alexa 488- or Alexa 594-conjugated secondary antibody (Molecular Probes, Invitrogen) in blocking solution). After washing with PBS, the coverslips were incubated again overnight in primary antibody solution for the second antigen, and the procedure for conjugation of the fluorophore-conjugated secondary antibody was repeated as above. Finally, cell nuclei were counterstained with 4′,6-diamidino-2-phenylindole (DAPI), and coverslips were mounted on glass slides with ProLong Antifade reagent (Invitrogen).
# as §4
# HDAC5 = target: T4, HDAC5 (Homo sapiens, UniProt Q9UQL6); assay: Biochemical HDAC assay (BPS Bioscience), HDAC5; settings: 25 µM
# T4 construct: purchased BPS Bioscience (San Diego, CA), contract assay service
# T4 sequence (Q9UQL6 whole entry): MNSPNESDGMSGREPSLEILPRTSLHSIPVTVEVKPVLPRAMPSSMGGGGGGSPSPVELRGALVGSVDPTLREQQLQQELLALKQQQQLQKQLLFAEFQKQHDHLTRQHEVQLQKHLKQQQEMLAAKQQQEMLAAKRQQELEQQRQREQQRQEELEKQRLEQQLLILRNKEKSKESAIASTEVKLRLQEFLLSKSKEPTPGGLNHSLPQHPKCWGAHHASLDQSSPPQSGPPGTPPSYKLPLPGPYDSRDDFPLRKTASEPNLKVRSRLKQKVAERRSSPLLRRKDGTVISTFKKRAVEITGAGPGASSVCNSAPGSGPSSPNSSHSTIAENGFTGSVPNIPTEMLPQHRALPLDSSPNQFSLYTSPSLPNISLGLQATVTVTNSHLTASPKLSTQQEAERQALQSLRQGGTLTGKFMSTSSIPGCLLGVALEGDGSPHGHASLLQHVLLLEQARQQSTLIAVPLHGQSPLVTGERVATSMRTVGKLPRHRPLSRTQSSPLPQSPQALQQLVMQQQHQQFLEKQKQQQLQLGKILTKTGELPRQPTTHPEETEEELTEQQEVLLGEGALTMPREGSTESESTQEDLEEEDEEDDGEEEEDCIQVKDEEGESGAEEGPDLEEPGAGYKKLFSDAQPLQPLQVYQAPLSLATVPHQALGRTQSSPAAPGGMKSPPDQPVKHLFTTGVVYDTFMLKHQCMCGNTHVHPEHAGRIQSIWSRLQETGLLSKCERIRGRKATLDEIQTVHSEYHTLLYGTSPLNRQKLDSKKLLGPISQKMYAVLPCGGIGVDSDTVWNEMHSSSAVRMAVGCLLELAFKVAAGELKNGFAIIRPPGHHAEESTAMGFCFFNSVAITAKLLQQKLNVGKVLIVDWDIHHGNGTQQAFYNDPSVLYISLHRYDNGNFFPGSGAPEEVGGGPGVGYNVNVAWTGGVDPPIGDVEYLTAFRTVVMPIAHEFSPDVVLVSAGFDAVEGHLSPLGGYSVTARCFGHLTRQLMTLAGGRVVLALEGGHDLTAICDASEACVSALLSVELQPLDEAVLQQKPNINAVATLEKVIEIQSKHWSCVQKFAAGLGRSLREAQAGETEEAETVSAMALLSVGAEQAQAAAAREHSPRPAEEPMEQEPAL
# T3 sequence (O15379 whole entry): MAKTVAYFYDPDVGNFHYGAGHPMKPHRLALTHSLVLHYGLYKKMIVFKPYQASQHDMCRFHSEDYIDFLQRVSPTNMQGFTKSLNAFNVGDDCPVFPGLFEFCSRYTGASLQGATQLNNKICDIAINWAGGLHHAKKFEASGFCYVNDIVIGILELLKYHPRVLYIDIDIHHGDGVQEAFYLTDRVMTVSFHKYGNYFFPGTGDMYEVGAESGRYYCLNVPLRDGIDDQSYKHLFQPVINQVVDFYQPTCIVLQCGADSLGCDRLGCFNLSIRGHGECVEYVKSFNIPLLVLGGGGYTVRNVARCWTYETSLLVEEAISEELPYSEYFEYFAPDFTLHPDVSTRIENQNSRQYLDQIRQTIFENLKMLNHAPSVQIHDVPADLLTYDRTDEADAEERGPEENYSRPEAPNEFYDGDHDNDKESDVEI
# T3 sequence (Q9Y618 395-489 partner limits assumed): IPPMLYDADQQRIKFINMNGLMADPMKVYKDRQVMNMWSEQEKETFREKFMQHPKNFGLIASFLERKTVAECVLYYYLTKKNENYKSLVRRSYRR
# T1 sequence (Q9BY41 whole entry): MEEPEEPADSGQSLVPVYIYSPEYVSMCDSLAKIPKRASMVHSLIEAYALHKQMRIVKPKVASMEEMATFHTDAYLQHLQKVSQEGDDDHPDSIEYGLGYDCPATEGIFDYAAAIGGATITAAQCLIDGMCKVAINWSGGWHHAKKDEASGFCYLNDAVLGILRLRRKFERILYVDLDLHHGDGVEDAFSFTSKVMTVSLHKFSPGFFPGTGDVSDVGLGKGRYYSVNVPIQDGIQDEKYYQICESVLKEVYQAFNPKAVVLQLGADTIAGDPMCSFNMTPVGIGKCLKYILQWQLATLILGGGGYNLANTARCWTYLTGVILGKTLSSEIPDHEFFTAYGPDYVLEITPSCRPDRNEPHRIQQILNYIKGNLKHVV
# T2 sequence (Q9UBN7 whole entry): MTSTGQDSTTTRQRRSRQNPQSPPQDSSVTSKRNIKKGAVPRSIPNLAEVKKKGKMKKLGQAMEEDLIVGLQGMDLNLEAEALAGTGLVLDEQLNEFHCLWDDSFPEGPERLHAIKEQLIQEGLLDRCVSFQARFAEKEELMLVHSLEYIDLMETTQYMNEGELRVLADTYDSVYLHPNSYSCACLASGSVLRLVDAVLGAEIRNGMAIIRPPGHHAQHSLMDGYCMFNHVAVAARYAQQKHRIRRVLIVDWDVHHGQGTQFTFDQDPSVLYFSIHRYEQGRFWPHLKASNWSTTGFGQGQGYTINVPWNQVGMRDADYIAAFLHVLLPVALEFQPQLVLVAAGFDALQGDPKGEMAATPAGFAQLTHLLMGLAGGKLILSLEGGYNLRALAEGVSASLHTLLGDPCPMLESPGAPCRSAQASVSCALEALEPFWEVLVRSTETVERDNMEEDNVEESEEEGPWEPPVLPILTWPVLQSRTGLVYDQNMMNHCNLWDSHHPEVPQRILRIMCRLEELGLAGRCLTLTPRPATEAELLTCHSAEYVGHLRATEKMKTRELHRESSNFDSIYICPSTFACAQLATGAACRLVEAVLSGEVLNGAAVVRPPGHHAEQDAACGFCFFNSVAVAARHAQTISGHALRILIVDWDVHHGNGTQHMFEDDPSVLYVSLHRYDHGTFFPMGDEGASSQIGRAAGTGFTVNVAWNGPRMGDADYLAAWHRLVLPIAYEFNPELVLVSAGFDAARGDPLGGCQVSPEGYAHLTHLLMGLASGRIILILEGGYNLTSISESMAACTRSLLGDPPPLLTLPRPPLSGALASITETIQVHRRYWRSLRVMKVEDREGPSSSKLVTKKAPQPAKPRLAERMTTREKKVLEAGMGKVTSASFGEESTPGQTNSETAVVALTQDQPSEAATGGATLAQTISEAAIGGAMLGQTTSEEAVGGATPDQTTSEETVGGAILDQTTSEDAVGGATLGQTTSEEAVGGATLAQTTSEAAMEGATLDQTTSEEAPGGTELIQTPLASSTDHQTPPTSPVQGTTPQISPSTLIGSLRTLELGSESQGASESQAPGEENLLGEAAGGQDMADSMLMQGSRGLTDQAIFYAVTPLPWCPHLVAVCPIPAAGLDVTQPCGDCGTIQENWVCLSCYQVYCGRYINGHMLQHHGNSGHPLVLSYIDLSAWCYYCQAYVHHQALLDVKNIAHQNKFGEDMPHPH
smiles,measurement,setting,value
O=C(Nc1cccc(Br)c1)c1cccc(S(=O)(=O)N2CCCCCC2)c1 [AK-7],GluA2 mRNA expression,GluA2 mRNA,does not affect
same,impact on acetyl-H3K9 immunofluorescence (Z-score),acetyl-H3K9,increasing effect of intermediate intensity
same,surface GluA1 puncta per dendrite µm,surface GluA1,significant decrease in surface GluA1 levels
same,blood–brain barrier crossing,[1],can efficiently cross the blood–brain barrier
same,inhibitory activity toward HDAC8,HDAC8,failed to show any inhibitory activity
same,inhibitory activity toward HDAC6,HDAC6,failed to show any inhibitory activity
same,GluA1 mRNA expression,GluA1 mRNA,does not affect
same,inhibitory activity toward HDAC3,HDAC3,failed to show any inhibitory activity
same,number of Arc puncta in dendritic projections,[2],significantly greater number of Arc puncta
same,inhibitory activity toward HDAC5,HDAC5,failed to show any inhibitory activity
